Data as given in US11485742B2, “2-azaspiro[3.4]octane derivatives as M4 agonists” (NOVARTIS AG, priority 2019, dated 2022).

How the values were obtained:
[1] = target: T1, human cloned CHRM3 receptor (Homo sapiens, UniProt P20309); test: CHRM3 Ca++ Flux Assay (M3_CHO cells, agonist mode); format: cell-based; conditions: for M3 FDSS PA %: Percent Activity (PA) measured to EC100 of Carbachol; for EC50: agonist mode, geometric mean if tested more than once, read-out: M3 FDSS EC50
T1 construct: expressed in transfected cells; host or cells: CHO-K1 (M3_CHO)
T1 sequence (P20309 whole entry): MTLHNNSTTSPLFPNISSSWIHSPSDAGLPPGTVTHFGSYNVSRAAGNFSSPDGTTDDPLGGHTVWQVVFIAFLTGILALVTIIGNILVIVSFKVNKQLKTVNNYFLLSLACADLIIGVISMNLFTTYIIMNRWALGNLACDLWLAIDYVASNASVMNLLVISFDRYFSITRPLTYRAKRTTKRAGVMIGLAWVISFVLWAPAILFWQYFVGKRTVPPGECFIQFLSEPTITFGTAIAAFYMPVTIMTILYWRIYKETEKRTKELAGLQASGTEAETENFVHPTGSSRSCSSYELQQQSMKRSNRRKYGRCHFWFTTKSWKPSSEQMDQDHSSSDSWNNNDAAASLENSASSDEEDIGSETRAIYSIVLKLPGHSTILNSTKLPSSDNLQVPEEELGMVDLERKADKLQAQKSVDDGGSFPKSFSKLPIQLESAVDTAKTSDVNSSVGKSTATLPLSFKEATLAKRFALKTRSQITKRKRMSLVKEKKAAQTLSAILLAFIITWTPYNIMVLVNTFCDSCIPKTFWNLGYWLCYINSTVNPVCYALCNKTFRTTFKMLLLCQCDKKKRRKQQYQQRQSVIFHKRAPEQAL
Description: (§1) The above examples were characterized by measuring the intracellular mobilization of Ca^++ ions caused by signaling events mediated by the receptor. The Intra-cellular Calcium flux levels were captured by the highly sensitive Ca^++ indicator, Calcium Assay Kit (BD Biosciences; Catalog Number 640178. The fluorescent activity from all receptors were monitored by the fluorescent imager, FDSS 7000EX (Hamamatsu) over a span of 3 minutes. The change in Calcium flux was readily captured upon activation with the muscarinic orthosteric agonist, Carbachol.
CHO-K1 cells stably expressing the human cloned CHRM3 receptor (M3_CHO cells) were grown and maintained in a monolayer culture with F12/HAM (Life Technologies) supplemented with 10% Fetal Bovine Serum, IX Pen-Strep, and 0.4 mg/mL Geneticin in a humidified atmosphere (5% CO2) at 37° C. The cultures were grown to 80-90% confluency in T150 flasks (Corning) and washed with 1×DPBS and lifted with 0.05% Trypsin (Life Technologies). The cells were then spun (1K rpm, 3 minutes) and frozen using Recovery Cell Culture Freezing Media (Gibco Technologies). Cells were stored in liquid nitrogen and thawed a day before the assay. A similar procedure was used for cells stably expressing the human cloned CHRM5 receptor (M5_CHO).
Prior to the day of the assay, stable M3_CHO or M5_CHO cells were thawed and plated on Greiner 384 well black TC treated plates at 12K cells/well in F12/DMEM supplemented with 10% FBS (Hyclone) and kept overnight in a humidified atmosphere (5% CO2) at 37° C. The next day, cells were loaded with Ca^++ dye (BD Biosciences) using Loading Buffer (HBSS +Ca/+Mg, 20 mM HEPES, 2.5 mM Probenecid) and placed back in cell incubator for a minimum of 1 hour. After incubation, the dye was replaced with Assay Buffer (HBSS −Ca/−Mg, 20 mM HEPES, 2.5 mM Probenecid) and kept at room temperature in the dark before running on cell imager. The FDSS 7000EX (Hamamatsu) was used to acquire Ca^+− traces from cells treated with 11 point dose response of compounds in triplicate in order to generate dose response curves in agonist mode. All compounds were serially diluted in DMSO then prepared in Assay Buffer for Ca^++ flux studies. The dose response curves were generated from the average of triplicate wells obtained from each data point and used a non-linear regression of four parameter dose response algorithm. The Percent Activity (PA) was measured to EC100 of Carbachol.
(§2) If an Example was tested more than once in an assay, then the values below represent the geometric mean of the results from each independent experiment.

[2] = target: T2, human cloned CHRM4 receptor (Homo sapiens, UniProt P08173); test: CHRM4 Ca++ Flux Assay (M4_CHO cells, agonist mode); format: cell-based; conditions: for M4 FDSS PA %: Percent Activity (PA); for EC50: geometric mean if tested more than once, read-out: M4 FDSS EC50
T2 construct: expressed in transfected cells; host or cells: CHO-K1 (M4_CHO)
T2 sequence (P08173 1-479): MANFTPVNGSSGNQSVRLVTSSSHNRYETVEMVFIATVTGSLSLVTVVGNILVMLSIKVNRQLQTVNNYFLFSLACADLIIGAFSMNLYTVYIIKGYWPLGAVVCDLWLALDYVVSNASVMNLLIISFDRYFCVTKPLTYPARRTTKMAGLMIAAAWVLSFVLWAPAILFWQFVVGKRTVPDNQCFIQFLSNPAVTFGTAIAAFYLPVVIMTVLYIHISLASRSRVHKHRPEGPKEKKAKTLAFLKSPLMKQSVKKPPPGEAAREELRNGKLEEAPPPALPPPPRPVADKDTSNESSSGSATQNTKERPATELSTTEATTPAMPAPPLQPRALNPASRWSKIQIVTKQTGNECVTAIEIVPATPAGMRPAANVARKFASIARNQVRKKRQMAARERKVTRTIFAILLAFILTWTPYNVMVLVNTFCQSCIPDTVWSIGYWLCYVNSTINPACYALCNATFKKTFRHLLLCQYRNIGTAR
Description: as §1
CHO-K1 cells stably expressing the human cloned CHRM4 receptor (M4_CHO cells) were grown and maintained in a monolayer culture with F12/HAM (Life Technologies) supplemented with 10% Fetal Bovine Serum, 1X Pen-Strep, and 0.4 mg/mL Geneticin in a humidified atmosphere (5% CO2) at 37° C. The cultures were grown to 80-90% confluency in T150 flasks (Corning) and washed with 1×DPBS then lifted with 0.05% Trypsin (Life Technologies). The cells were harvested in growth media then spun (1K rpm, 3 minutes) and cryopreserved using Recovery Cell Culture Freezing Media (Gibco Technologies). Cells were stored in liquid nitrogen and thawed a day before the assay.
Prior to the day of the assay, stable M4_CHO cells were thawed and plated on 384 well black walled clear bottom TC treated plates (Greiner Cat #781091) at 12K cells/well using F12/HAM Media supplemented with 10% FBS (Life Technologies) and kept overnight in a humidified atmosphere (5% CO2) at 37° C. The next day, cells were loaded with 20 μL Ca^++ dye (BD Biosciences) using Loading Buffer (HBSS +Ca/+Mg, 20 mM HEPES, 2.5 mM Probenecid) and placed back in cell incubator for a minimum of 1 hour. After incubation, the dye was replaced with 45 μL Assay Buffer (HBSS −Ca/−Mg, 20 mM HEPES, 2.5 mM Probenecid) supplemented with 20 μM ATP (Sigma Aldrich) and kept at room temperature in the dark for 60 minutes before running on a cell imager. The FDSS 7000EX (Hamamatsu) was used to capture Ca^++ traces for a span of 3 minutes from cells treated with 11 point dose of compound in triplicate in order to generate dose response curves in agonist mode. All compounds were serially diluted in DMSO then prepared in Assay Buffer for Ca^++ flux studies. The dose response curves were generated from the average of triplicate wells obtained from each data point and used a non-linear regression of four parameter dose response algorithm. The Percent Activity (PA) was measured to EC100 of Carbachol.
as §2

Structure (SMILES) | M3 FDSS PA % [1] [%] | EC50 [1] [µM] | M4 FDSS PA % [2] [%] | EC50 [2] [µM]
Fc1ccc(OC[C@H]2CCO2)c(C2CCN([C@@H]3COC4(C3)CN(c3nncs3)C4)CC2)c1.O=C(O)C(F)(F)F (single isomer, unassigned) [Example 2C, (S)-7-(4-(5-fluoro-2-(((R)-oxetan-2-yl)methoxy)phenyl)piperidin-1-yl)-2-(1,3,4-thiadiazol-2-yl)-5-oxa-2-azaspiro[3.4]octane trifluoroacetate or (S)-7-(4-(5-fluoro-2-(((S)-oxetan-2-yl)methoxy)phenyl)piperidin-1-yl)-2-(1,3,4-thiadiazol-2-yl)-5-oxa-2-azaspiro[3.4]octane trifluoroacetate] | 0 | > 25 | 72 | 0.094
Fc1ccc(OC[C@H]2CCO2)c(C2CCN([C@@H]3COC4(C3)CN(c3nncs3)C4)CC2)c1.O=C(O)C(F)(F)F (single isomer, unassigned) [Example 2D, (S)-7-(4-(5-fluoro-2-(((R)-oxetan-2-yl)methoxy)phenyl)piperidin-1-yl)-2-(1,3,4-thiadiazol-2-yl)-5-oxa-2-azaspiro[3.4]octane trifluoroacetate or (S)-7-(4-(5-fluoro-2-(((S)-oxetan-2-yl)methoxy)phenyl)piperidin-1-yl)-2-(1,3,4-thiadiazol-2-yl)-5-oxa-2-azaspiro[3.4]octane trifluoroacetate] | 0 | > 25 | 72 | 0.02
OC[C@H]1C[C@H](Oc2ccc(F)cc2C2CCN([C@@H]3COC4(C3)CN(c3nnco3)C4)CC2)C1 (single isomer, unassigned) [Example 2HH, ((1S,3r)-3-(2-(1-((S)-2-(1,3,4-oxadiazol-2-yl)-5-oxa-2-azaspiro[3.4]octan-7-yl)piperidin-4-yl)-4-fluorophenoxy)cyclobutyl)methanol or ((1R,3s)-3-(2-(1-((S)-2-(1,3,4-oxadiazol-2-yl)-5-oxa-2-azaspiro[3.4]octan-7-yl)piperidin-4-yl)-4-fluorophenoxy)cyclobutyl)methanol] | 0 | > 25 | 85 | 0.124
OC[C@H]1C[C@H](Oc2ccc(F)cc2C2CCN([C@@H]3COC4(C3)CN(c3nnco3)C4)CC2)C1 (single isomer, unassigned) [Example 2II, ((1S,3r)-3-(2-(1-((S)-2-(1,3,4-oxadiazol-2-yl)-5-oxa-2-azaspiro[3.4]octan-7-yl)piperidin-4-yl)-4-fluorophenoxy)cyclobutyl)methanol or ((1R,3s)-3-(2-(1-((S)-2-(1,3,4-oxadiazol-2-yl)-5-oxa-2-azaspiro[3.4]octan-7-yl)piperidin-4-yl)-4-fluorophenoxy)cyclobutyl)methanol] | 0 | > 25 | 81 | 0.124

More lines, now with the values ahead:

M3 FDSS PA % [1] [%] | EC50 [1] [µM] | M4 FDSS PA % [2] [%] | EC50 [2] [µM] | Structure (SMILES)
0 | > 25 | 65 | 0.289 | CC1(C)C[C@@H](Oc2ccc(F)cc2C2CCN([C@@H]3COC4(C3)CN(c3nnco3)C4)CC2)CO1 (single isomer, unassigned) [Example 2N, (S)-7-(4-(2-(((R)-5,5-dimethyltetrahydrofuran-3-yl)oxy)-5-fluorophenyl)piperidin-1-yl)-2-(1,3,4-oxadiazol-2-yl)-5-oxa-2-azaspiro[3.4]octane or (S)-7-(4-(2-(((S)-5,5-dimethyltetrahydrofuran-3-yl)oxy)-5-fluorophenyl)piperidin-1-yl)-2-(1,3,4-oxadiazol-2-yl)-5-oxa-2-azaspiro[3.4]octane]
0 | > 25 | 86 | 0.051 | CC1(C)C[C@@H](Oc2ccc(F)cc2C2CCN([C@@H]3COC4(C3)CN(c3nnco3)C4)CC2)CO1 (single isomer, unassigned) [Example 2O, (S)-7-(4-(2-(((R)-5,5-dimethyltetrahydrofuran-3-yl)oxy)-5-fluorophenyl)piperidin-1-yl)-2-(1,3,4-oxadiazol-2-yl)-5-oxa-2-azaspiro[3.4]octane or (S)-7-(4-(2-(((S)-5,5-dimethyltetrahydrofuran-3-yl)oxy)-5-fluorophenyl)piperidin-1-yl)-2-(1,3,4-oxadiazol-2-yl)-5-oxa-2-azaspiro[3.4]octane]
0 | > 25 | 81 | 0.13 | Fc1ccc(O[C@H]2CCCOC2)c(C2CCN([C@@H]3COC4(C3)CN(c3nnco3)C4)CC2)c1 (single isomer, unassigned) [Example 2Q, (S)-7-(4-(5-fluoro-2-(((S)-tetrahydro-2H-pyran-3-yl)oxy)phenyl)piperidin-1-yl)-2-(1,3,4-oxadiazol-2-yl)-5-oxa-2-azaspiro[3.4]octane or (S)-7-(4-(5-fluoro-2-(((R)-tetrahydro-2H-pyran-3-yl)oxy)phenyl)piperidin-1-yl)-2-(1,3,4-oxadiazol-2-yl)-5-oxa-2-azaspiro[3.4]octane]
0 | > 25 | 76 | 0.025 | Fc1ccc(O[C@H]2CCCOC2)c(C2CCN([C@@H]3COC4(C3)CN(c3nnco3)C4)CC2)c1 (single isomer, unassigned) [Example 2R, (S)-7-(4-(5-fluoro-2-(((S)-tetrahydro-2H-pyran-3-yl)oxy)phenyl)piperidin-1-yl)-2-(1,3,4-oxadiazol-2-yl)-5-oxa-2-azaspiro[3.4]octane or (S)-7-(4-(5-fluoro-2-(((R)-tetrahydro-2H-pyran-3-yl)oxy)phenyl)piperidin-1-yl)-2-(1,3,4-oxadiazol-2-yl)-5-oxa-2-azaspiro[3.4]octane]
0 | > 25 | 75 | 0.094 | CC(C)(O)[C@H]1C[C@H](Oc2ccc(F)cc2C2CCN([C@@H]3COC4(C3)CN(c3nnco3)C4)CC2)C1 (single isomer, unassigned) [Example 2V, 2-((1S,3r)-3-(2-(1-((S)-2-(1,3,4-oxadiazol-2-yl)-5-oxa-2-azaspiro[3.4]octan-7-yl)piperidin-4-yl)-4-fluorophenoxy)cyclobutyl)propan-2-ol or 2-((1R,3s)-3-(2-(1-((S)-2-(1,3,4-oxadiazol-2-yl)-5-oxa-2-azaspiro[3.4]octan-7-yl)piperidin-4-yl)-4-fluorophenoxy)cyclobutyl)propan-2-ol]
